Test results from US20250250252A1, “PIPERIDINYLBENZONITRILE DERIVATIVES AS INHIBITORS OF GLUTAMINYL-PEPTIDE CYCLOTRANSFERASE AND GLUTAMINYL-PEPTIDE CYCLOTRANSFERASE LIKE PROTEIN” (Boehringer Ingelheim International GmbH, priority 2024, published 2025).

Columns and labels:
QPCTL = QPCTL (Homo sapiens (Human), UniProt Q9NXS2); experiment: Assay A: biochemical QPCTL activity assay (MALDI-TOF MS); details: read-out: Inhibition of QPCTL: IC50
Procedure: (§1) QPCT or QPCTL dependent conversion of N-terminal glutamine to pyroglutamate of CD47 was monitored via MALDI-TOF MS. Test compounds were dissolved in 100% DMSO and serially diluted into clear 1,536-well microtiter plates. Enzymatic reactions were set up in assay buffer containing 20 mM Tris pH 7.5, 0.1 mM TCEP, 0.01% BSA, and 0.001% Tween20. […] The plates were incubated for 10 min in a humidified incubator at 24° C. Subsequently, 2.5 μL of CD47 peptide substrate surrogate (^19[…]^33) was added to each well (final concentration: 10 μM for QPCTL/20 μM for QPCT). The plates were mixed for 30 sec at 1,000 rpm and subsequently incubated for 40 min in a humidified incubator at 24° C. […] The plates were sealed with an adhesive foil, mixed for 30 s at 1,000 rpm and stored at room temperature until preparation of the MALDI target plates. […] QPCT or QPCTL activity was monitored by calculating the ratio between product and internal standard signals followed by normalization to high (100% activity) and low (0% activity) controls. Determination of compound potencies was obtained by fitting the dose-response data to a four-parameter logistical equation.

QPCT = QPCT (Homo sapiens (Human), UniProt Q16769); experiment: Assay A: biochemical QPCT activity assay (MALDI-TOF MS); details: read-out: Inhibition of QPCT: IC50
Sequence of QPCT (Q16769 29-361): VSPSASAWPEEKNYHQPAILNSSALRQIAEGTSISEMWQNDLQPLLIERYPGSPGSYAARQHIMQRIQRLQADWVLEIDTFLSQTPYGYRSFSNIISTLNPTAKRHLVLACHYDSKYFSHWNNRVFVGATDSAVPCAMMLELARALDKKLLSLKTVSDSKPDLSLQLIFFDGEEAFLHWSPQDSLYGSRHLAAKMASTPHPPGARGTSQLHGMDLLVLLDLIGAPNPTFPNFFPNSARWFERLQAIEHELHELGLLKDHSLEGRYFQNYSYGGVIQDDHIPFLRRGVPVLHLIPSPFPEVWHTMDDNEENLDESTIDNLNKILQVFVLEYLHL
Procedure: as §1

[1] = tested on: SIRPα signalling induced by Raji cells; experiment: Assay B: SIRPα signalling assay using Raji cells; format: cell-based; details: Homo sapiens, read-out: Inhibition of SIRPα signalling induced by Raji cells: IC50
Procedure: Bioassay reagent 1 of the PathHunter Bioassay detection kit (DiscoverX 93-0001) was added to each well of the plate using a multichannel pipette followed by a 15 min incubation at room temperature. Afterwards bioassay reagent 2 was added followed by 60 min incubation at room temperature (incubation in the dark).
The analysis of the data was performed using the luminescence signal generated by betagalactosidase in the PathHunter reporter cell line. The luminescence measurement was done using a Pherastar Multi-Mode Reader.

[2] = tested on: SIRPα signalling induced by A549 cells; experiment: Assay B: SIRPα signalling assay using A549 cells; format: cell-based; details: Homo sapiens, read-out: Inhibition of SIRPα signalling induced by A549 cells: IC50
Procedure: Two cell types are independently used: the Raji cell line (lymphoblast-like human cell line derived from B lymphocytes from a Burkitt's lymphoma patient in 1963) and A549 cells (adenocarcinomic human alveolar basal epithelial cells).
Test compounds were dissolved in 100% DMSO and serially diluted into a white 384-well microtiter cell culture plate (PerkinElmer #60076780 in case of Raji assay; PDL-coated plates Greiner #781945 in case of A549 assay). 5000 Raji cells (ATCC #CC86) or 5000 A549 cells (ATCC #CCL-185) in Assay Complete Cell Plating reagent 30 (DiscoverX 93-0563R30B) were added per well. The assay plate was incubated for 48 h at 37° C., 95% humidity and 5% CO2. 15000 reporter cells (Jurkat PathHunter SIRPαV1, DiscoverX #93-1135C19) were added to each well, and the plate was incubated for 5 h at 37° C., 95% humidity and 5% CO2. Bioassay reagent 1 of the PathHunter Bioassay detection kit (DiscoverX 93-0001) was added to each well of the plate using a multichannel pipette followed by a 15 min incubation at room temperature. Afterwards bioassay reagent 2 was added followed by 60 min incubation at room temperature (incubation in the dark).
The analysis of the data was performed using the luminescence signal generated by betagalactosidase in the PathHunter reporter cell line. The luminescence measurement was done using a Pherastar Multi-Mode Reader. Dose-response curves & IC50 data were calculated with 4-parameter sigmoidal dose response formula.

[3] = Assay C: Permeability in CACO-2 cells; format: in vitro ADME; details: human, Assay C; for efflux ratio: Caco-2, pH 7.2, permeability B-A/permeability A-B, read-out: Efflux Ratio; for Papp A→B: pH 7.2, CACO-2 cells
Procedure: Caco-2 cells (1-2×10^5 cells/1 cm^2 area) are seeded on filter inserts (Costar transwell polycarbonate or PET filters, 0.4 μm pore size) and cultured (DMEM) for 10 to 25 days. Compounds are dissolved in appropriate solvent (like DMSO, 1-20 mM stock solutions). […] The transport solution (TL) is applied to the apical or basolateral donor side for measuring A-B or B-A permeability (3 filter replicates), respectively. Samples are collected at the start and end of experiment from the donor and at various time intervals for up to 2 hours also from the receiver side for concentration measurement by HPLC-MS/MS or scintillation counting. Sampled receiver volumes are replaced with fresh receiver solution.
Efflux ratio (ER)=permeability B-A/permeability A-B

CYP3A4 mRNA = experiment: Assay D: CYP induction screening assay in primary human hepatocytes; format: in vitro ADME; details: 48 h
Procedure: Cryopreserved plateable human hepatocytes (single donor, BioIVT) were thawed and plated in Collagen-I coated 96-well-plates at a cell density of 0.07 million cells per well.
After a 6 h attachment period, the seeding medium was replaced by serum-free William's medium E supplemented with Matrigel (0.25 mg/ml) and allowed to recover overnight. 24 h post-seeding, serum-free Williams E medium containing the test compound at a final concentration of 10 μM and a final DMSO content of 0.1% and 0.1% DMSO (solvents treated control), respectively, was added to predefined wells. Exposure solutions were renewed after 24 h.
After 48 h of treatment in total, the effect of the test compounds on CYP3A4 mRNA expression was assessed using the QuantiGene Plex Gene Expression Assay. Hepatocytes were lysed and total RNA was extracted using the QuantiGene Sample Processing Kit according to the instructions of the manufacturer.
mRNA quantification was conducted using a customized QuantiGene Plex Panel to analyse CYP3A4 and the housekeeper genes RPL32, EIF4E2 and GUSB according to the instructions of the manufacturer and measured on a Luminex™ instrument. Signal was reported as median fluorescence intensity (MFI), which is proportional to the number of target RNA molecules present in the sample.
For calculation of CYP3A4 mRNA induction, the signal for CYP3A4 was normalized against the geometric mean of the signal obtained for the housekeeper genes for hepatocytes exposed to test compounds in relation to solvent-treated samples according to the following equation:
n-fold induction=(MFI CYP3A4 (treated)/Xgeo MFI (RPL32,EIF4E2,GUSB))/(MFI CYP3A4 (solvent control)/Xgeo MFI (RPL32,EIF4E2,GUSB))

murine hepatocytes = experiment: Assay E: Stability in murine hepatocytes; format: in vitro ADME, mouse; details: 1 μM
Procedure: The metabolic degradation of the test compound is assayed in a murine hepatocyte suspension.
Murine hepatocytes (typically cryopreserved) are incubated in an appropriate buffer system (e.g. Dulbecco's modified eagle medium plus 3.5 μg glucagon/500 mL, 2.5 mg insulin/500 mL and 3.75 mg/500 mL hydrocortison) containing 5% species serum.
Following a (typically) 30 min preincubation in an incubator (37° C., 10% CO2) 5 μl of test compound solution (80 μM; from 2 mM in DMSO stock solution diluted 1:25 with medium) are added into 395 μl hepatocyte suspension (cell density in the range 0.25-5 Mio cells/mL, typically 1 Mio cells/mL; final concentration of test compound 1 μM, final DMSO concentration 0.05%).
The cells are incubated for six hours (incubator, orbital shaker) and samples (2 μl) are taken at 0, 0.5, 1, 2, 4 and 6 hours. Samples are transferred into acetonitrile and pelleted by centrifugation (5 min). The supernatant is transferred to a new 96-deepwell plate, evaporated under nitrogen and resuspended.
CLint is calculated as follows CL_[…]=Dose/AUC=(C0/CD)/(AUD+clast/k)×1000/60. C0: initial concentration in the incubation [μM], CD: cell density of vital cells [10e6cells/mL], AUD: area under the data [μM×h], clast: concentration of last data point [μM], k: slope of the regression line for parent decline [h−1].
The calculated in vitro hepatic intrinsic clearance can be scaled up to the intrinsic in vivo hepatic Clearance and used to predict hepatic in vivo blood clearance (CL) by the use of a liver model (well stirred model).
CL_[…]_INVIVO[ml/min/kg]=(CL_[…][μL/min/10e6cells]×hepatocellularity[10e6cells/g liver]×liver factor[g/kg bodyweight])/1000
CL[ml/min/kg]=CL_[…]_INVIVO[ml/min/kg]×hepatic blood flow[ml/min/kg]/(CL_[…]_INVIVO[ml/min/kg]+hepatic blood flow[ml/min/kg])
Hepatocellularity,mouse:120×10e6cells/g liver
Liver factor,mouse:55 g/kg bodyweight
Blood flow,mouse:90 ml/(min×kg)

Sequence of QPCTL (Q9NXS2 whole entry): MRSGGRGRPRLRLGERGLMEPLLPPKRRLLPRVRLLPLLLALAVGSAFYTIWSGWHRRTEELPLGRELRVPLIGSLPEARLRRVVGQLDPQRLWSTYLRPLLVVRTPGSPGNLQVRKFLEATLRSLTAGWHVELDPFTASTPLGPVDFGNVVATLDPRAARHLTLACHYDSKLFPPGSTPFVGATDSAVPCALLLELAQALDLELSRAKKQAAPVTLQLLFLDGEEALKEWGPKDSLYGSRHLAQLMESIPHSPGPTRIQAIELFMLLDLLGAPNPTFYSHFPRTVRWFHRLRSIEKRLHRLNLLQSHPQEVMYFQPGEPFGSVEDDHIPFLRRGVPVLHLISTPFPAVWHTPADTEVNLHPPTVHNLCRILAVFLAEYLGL

Compound | IC50 (QPCTL) | IC50 (QPCT) | IC50 [1] | IC50 [2] | efflux ratio [3] | Papp A→B [3] | n-fold induction of CYP3A4 at 10 μM (CYP3A4 mRNA) | Mouse Hepatocyte Stability QH (murine hepatocytes)
Cn1cc(-c2cc(C#N)c(N3CCC(F)(c4nncn4C)CC3)c(-c3ccc(F)nc3)c2)cn1 [Example 5] | 2 nM | 2 nM | 52 nM | 25 nM | 6.7 | 5.4 ×10⁻⁶ cm/s | 7.7 n-fold | <12%
Cc1nn(C)c(C)c1-c1cc(C#N)c(N2CCC(F)(c3nncn3C)CC2)c(-c2ccc(F)nc2)c1 [Example 3] | 4 nM | 5 nM | 330 nM | 45 nM | 7.8 | 11 ×10⁻⁶ cm/s | 1.7 n-fold | 25%
Cn1cnnc1C1(F)CCN(c2c(C#N)cc(-c3cnc(C(F)(F)F)nc3)cc2-c2ccc(F)nc2)CC1 [Example 9] | 3 nM | 6 nM | 108 nM | 67 nM | 5.2 | 4.8 ×10⁻⁶ cm/s | 1.4 n-fold | 20%
Cn1cnnc1C1CCN(c2c(-c3ccc(F)nc3)ccc(-c3ccnc(N)c3)c2C#N)CC1 [Compound 44, reference compound] | 1 nM | 5 nM | 121 nM | 67 nM | 47.9 | 0.5 ×10⁻⁶ cm/s | 1.0 n-fold | 65%
Cn1cnnc1C1(F)CCN(c2c(C#N)cc(C(C)(C)O)cc2-c2ccc(F)nc2)CC1 [Example 1] | 1 nM | 1 nM | 26 nM | 88 nM | 11.9 | 4.2 ×10⁻⁶ cm/s | 2.2 n-fold | 23%
Cn1cnnc1C1(F)CCN(c2c(C#N)cc(-c3cccnc3)cc2-c2ccc(F)nc2)CC1 [Example 6] | 3 nM | 4 nM | 139 nM | 33 nM | 4.6 | 19 ×10⁻⁶ cm/s | 1.8 n-fold | 35%
Cc1ncc(-c2cc(C#N)c(N3CCC(F)(c4nncn4C)CC3)c(-c3ccc(F)nc3)c2)cn1 [Example 7] | 3 nM | 4 nM | 100 nM | 37 nM | 7.9 | 4.8 ×10⁻⁶ cm/s | 0.7 n-fold | 48%
Cc1ncc(-c2cc(C#N)c(N3CCC(F)(c4nncn4C)CC3)c(-c3ccc(F)nc3)c2)o1 [Example 2] | 2 nM | 4 nM | 180 nM | 36 nM | 3.3 | 26 ×10⁻⁶ cm/s | 1.6 n-fold | 15%
Cn1cc(-c2ccc(-c3ccc(F)nc3)c(N3CCC(c4nncn4C)CC3)c2C#N)cn1 [Compound 35, reference compound] | 2 nM | 4 nM | 28 nM | 9 nM | 12.2 | 4.9 ×10⁻⁶ cm/s | 3.0 n-fold | 16%
